Values quoted from earlier work in US20130324521A1, “IMPLANT FOR TREATING OR PREVENTING AN ANEURYSM” (priority 2010, published 2013).

Cn1cncc1[C@@](N)(c1ccc(Cl)cc1)c1ccc2c(c1)c(-c1cccc(Cl)c1)cc(=O)n2C [R11577, Tipifarnib]
tolerability of oral administration (oral administration): tolerated well
toxicity (use as accredited therapeutic agent in oncological therapy): low toxicity
